How the values were obtained:
[1] = system: AsPC-1 cells; test: AsPC-1 cell proliferation assay (CellTiter Glo); format: cell-based; conditions: 6 days
Outline: (§1)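 AsPC-1 cells were seeded at 22,000/well for degradation and 3,500/well for proliferation. Compounds in 1:3 dilutions ([…] to 1.5 nM final) ran 24 h for degradation, read by in-cell immunofluorescence of KRAS G12D normalised to β-actin, and 6 days for proliferation (CellTiter Glo luminescence). DC50/IC50 came from dose-response fits.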

[2] = molecular target: T1, KRAS (G12D) (Homo sapiens, UniProt P01116, G12D); test: KRAS (G12D) cellular degradation assay in AsPC-1 cells; format: cell-based; conditions: 24 hours, antibody fluorescence (Odyssey CLX), DC50 half-maximal degradation concentration
T1 construct: in-cell western with KRAS G12D antibody after 24 h
Outline: as §1

T1 sequence (P01116 1-188 isoform P01116-2 G12D): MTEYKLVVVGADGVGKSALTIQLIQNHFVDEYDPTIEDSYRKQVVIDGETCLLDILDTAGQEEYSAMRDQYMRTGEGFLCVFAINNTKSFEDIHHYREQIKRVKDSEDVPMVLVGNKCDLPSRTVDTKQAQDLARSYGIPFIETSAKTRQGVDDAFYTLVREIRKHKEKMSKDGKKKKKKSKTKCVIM

Structure (SMILES) | IC50 ([1]; Homo sapiens, ASPC1, 144 h) [nM] | DC50 [2] [nM] | IC50 [1] [nM]
CO[C@H]1C[C@H](Oc2nc(N(C)[C@@H]3CCNC3)c3cc(C4CC4)c(-c4c(C)c(F)cc5[nH]ncc45)c(OCc4ccc(-c5cn([C@H](C(=O)N6C[C@H](O)C[C@H]6C(=O)N[C@@H](CO)c6ccc(-c7scnc7C)cc6)C(C)C)nn5)cc4)c3n2)C1 [Example 203, (2S,4R)-1-((2S)-2-(4-(4-(((6-cyclopropyl-7-(6-fluoro-5-methyl-1H-indazol-4-yl)-2-((1r,3R)-3-methoxycyclobutoxy)-4-(methyl((R)-pyrrolidin-3-yl)amino)quinazolin-8-yl)oxy)methyl)phenyl)-1H-1,2,3-triazol-1-yl)-3-methylbutanoyl)-4-hydroxy-N—((R)-2-hydroxy-1-(4-(4-methylthiazol-5-yl)phenyl)ethyl)pyrrolidine-2-carboxamide] | < 10 | < 10 | –
CCn1nccc1-c1cc(F)c([C@@H](NC(=O)[C@@H]2C[C@@H](O)CN2C(=O)[C@H](C(C)C)n2cc(-c3ccc(COc4c(-c5c(C)c(F)cc6[nH]ncc56)c(C5CC5)cc5c(N6C[C@@H]7C[C@H]6CN7)nc(O[C@H]6C[C@H](OC)C6)nc45)cc3)nn2)[C@H](C)O)c(F)c1 [Example 196, (2S,4R)-1-((2S)-2-(4-(4-(((4-((1S,4S)-2,5-diazabicyclo[2.2.1]heptan-2-yl)-6-cyclopropyl-7-(6-fluoro-5-methyl-1H-indazol-4-yl)-2-((1r,3S)-3-methoxycyclobutoxy)quinazolin-8-yl)oxy)methyl)phenyl)-1H-1,2,3-triazol-1-yl)-3-methylbutanoyl)-N-((1R,2S)-1-(4-(1-ethyl-1H-pyrazol-5-yl)-2,6-difluorophenyl)-2-hydroxypropyl)-4-hydroxypyrrolidine-2-carboxamide] | 10 to 100 | 10 to 100 | –
CCn1nccc1-c1ccc([C@H](CO)NC(=O)[C@@H]2C[C@@H](O)CN2C(=O)[C@H](C(C)C)n2cc(-c3ccc(COc4c(-c5c(C)c(F)cc6[nH]ncc56)c(C5CC5)cc5c(N6CCC=CCC6)nc(OC[C@H](C)OC)nc45)cc3)nn2)cc1 [Example 181, (2S,4R)-1-((2S)-2-(4-(4-(((6-cyclopropyl-7-(6-fluoro-5-methyl-1H-indazol-4-yl)-2-((S)-2-methoxypropoxy)-4-(2,3,6,7-tetrahydro-1H-azepin-1-yl)quinazolin-8-yl)oxy)methyl)phenyl)-1H-1,2,3-triazol-1-yl)-3-methylbutanoyl)-N—((R)-1-(4-(1-ethyl-1H-pyrazol-5-yl)phenyl)-2-hydroxyethyl)-4-hydroxypyrrolidine-2-carboxamide] | – | 10 to 100 | 10 to 100
CO[C@@H](C)COc1nc(N2C[C@H]3C[C@@H]2CN3)c2cc(C3CC3)c(-c3c(C)c(F)cc4n[nH]cc34)c(OCc3ccc(-c4cn([C@H](C(=O)N5C[C@H](O)C[C@H]5C(=O)N[C@@H](CO)c5ccc(-c6c(C)noc6C)cc5)C(C)C)nn4)cc3)c2n1 (single isomer, unassigned) [Example 6A] | 10 to 100 | 10 to 100 | –
CCn1nccc1-c1ccc([C@@H](NC(=O)[C@@H]2C[C@@H](O)CN2C(=O)[C@H](C(C)C)n2cc(-c3ccc(COc4c(-c5c(C)c(F)cc6[nH]ncc56)c(C5CC5)cc5c(N6C[C@@H]7C[C@H]6CN7)nc(OCC(OC)C(F)F)nc45)cc3)nn2)[C@H](C)O)cc1 (stereo partly drawn) [Example 119, (2S,4R)-1-((2S)-2-(4-(4-(((4-((1S,4S)-2,5-diazabicyclo[2.2.1]heptan-2-yl)-6-cyclopropyl-2-(3,3-difluoro-2-methoxypropoxy)-7-(6-fluoro-5-methyl-1H-indazol-4-yl)quinazolin-8-yl)oxy)methyl)phenyl)-1H-1,2,3-triazol-1-yl)-3-methylbutanoyl)-N-((1R,2S)-1-(4-(1-ethyl-1H-pyrazol-5-yl)phenyl)-2-hydroxypropyl)-4-hydroxypyrrolidine-2-carboxamide] | < 10 | < 10 | –
CCn1nccc1-c1ccc(CNC(=O)[C@@H]2C[C@@H](O)CN2C(=O)[C@H](C(C)C)n2cc(-c3ccc(COc4c(-c5c(C)c(F)cc6[nH]ncc56)c(C5CC5)cc5c(N6C[C@@H]7C[C@H]6CN7)nc(OC[C@H](C)OC)nc45)cc3)nn2)c2c1CC2 [Example 36, (2S,4R)-1-((2S)-2-(4-(4-(((4-((1S,4S)-2,5-diazabicyclo[2.2.1]heptan-2-yl)-6-cyclopropyl-7-(6-fluoro-5-methyl-1H-indazol-4-yl)-2-((S)-2-methoxypropoxy)quinazolin-8-yl)oxy)methyl)phenyl)-1H-1,2,3-triazol-1-yl)-3-methylbutanoyl)-N-((5-(1-ethyl-1H-pyrazol-5-yl)bicyclo[4.2.0]octa-1(6),2,4-trien-2-yl)methyl)-4-hydroxypyrrolidine-2-carboxamide] | 10 to 100 | 10 to 100 | –
CC[C@H](O)[C@H](NC(=O)[C@@H]1C[C@@H](O)CN1C(=O)[C@H](C(C)C)n1cc(-c2ccc(COc3c(-c4c(C)c(F)cc5[nH]ncc45)c(C4CC4)cc4c(N5C[C@@H]6C[C@H]5CN6)nc(OC5CCOCC5)nc34)cc2)nn1)c1ccc(-c2scnc2C)cc1 [Example 139, (2S,4R)-1-((2S)-2-(4-(4-(((4-((1S,4S)-2,5-diazabicyclo[2.2.1]heptan-2-yl)-6-cyclopropyl-7-(6-fluoro-5-methyl-1H-indazol-4-yl)-2-((tetrahydro-2H-pyran-4-yl)oxy)quinazolin-8-yl)oxy)methyl)phenyl)-1H-1,2,3-triazol-1-yl)-3-methylbutanoyl)-4-hydroxy-N-((1R,2S)-2-hydroxy-1-(4-(4-methylthiazol-5-yl)phenyl)butyl)pyrrolidine-2-carboxamide] | < 10 | < 10 | –
CCn1nccc1C12CC(CNC(=O)[C@@H]3C[C@@H](O)CN3C(=O)[C@H](C(C)C)n3cc(-c4ccc(COc5c(-c6c(C)c(F)cc7[nH]ncc67)c(C6CC6)cc6c(N7C[C@@H]8C[C@H]7CN8)nc(OC[C@H](C)OC)nc56)cc4)nn3)(C1)C2 [Example 81, (2S,4R)-1-((2S)-2-(4-(4-(((4-((1S,4S)-2,5-diazabicyclo[2.2.1]heptan-2-yl)-6-cyclopropyl-7-(6-fluoro-5-methyl-1H-indazol-4-yl)-2-((S)-2-methoxypropoxy)quinazolin-8-yl)oxy)methyl)phenyl)-1H-1,2,3-triazol-1-yl)-3-methylbutanoyl)-N-((3-(1-ethyl-1H-pyrazol-5-yl)bicyclo[1.1.1]pentan-1-yl)methyl)-4-hydroxypyrrolidine-2-carboxamide] | 10 to 100 | 10 to 100 | –

Second part, the molecule after the results:

IC50 ([1]; Homo sapiens, ASPC1, 144 h) [nM] | DC50 [2] [nM] | IC50 [1] [nM] | Structure (SMILES)
< 10 | < 10 | – | CCn1nccc1-c1ccc([C@@H](NC(=O)[C@@H]2C[C@@H](O)CN2C(=O)[C@H](C(C)C)n2cc(-c3ccc(COc4c(-c5c(C)c(F)cc6n[nH]cc56)c(C5CC5)cc5c(N6C[C@@H]7C[C@H]6CN7)nc(OC6CCOCC6)nc45)cc3)nn2)[C@H](C)O)c2c1CC2 [Example 84, (2S,4R)-1-((2S)-2-(4-(4-(((4-((1S,4S)-2,5-diazabicyclo[2.2.1]heptan-2-yl)-6-cyclopropyl-7-(6-fluoro-5-methyl-1H-indazol-4-yl)-2-((tetrahydro-2H-pyran-4-yl)oxy)quinazolin-8-yl)oxy)methyl)phenyl)-1H-1,2,3-triazol-1-yl)-3-methylbutanoyl)-N-((1R,2S)-1-(5-(1-ethyl-1H-pyrazol-5-yl)bicyclo[4.2.0]octa-1(6),2,4-trien-2-yl)-2-hydroxypropyl)-4-hydroxypyrrolidine-2-carboxamide]
< 10 | 10 to 100 | – | CCn1nccc1-c1ccc([C@@H](NC(=O)[C@@H]2C[C@@H](O)CN2C(=O)[C@H](C(C)C)n2cc(-c3ccc(COc4c(-c5c(C)c(F)cc6[nH]ncc56)c(C5CCC5)cc5c(N6C[C@@H]7C[C@H]6CN7)nc(OC[C@H](C)OC)nc45)cc3)nn2)[C@@H](C)O)cc1 [Example 128, (2S,4R)-1-((2S)-2-(4-(4-(((4-((1S,4S)-2,5-diazabicyclo[2.2.1]heptan-2-yl)-6-cyclobutyl-7-(6-fluoro-5-methyl-1H-indazol-4-yl)-2-((S)-2-methoxypropoxy)quinazolin-8-yl)oxy)methyl)phenyl)-1H-1,2,3-triazol-1-yl)-3-methylbutanoyl)-N-((1R,2R)-1-(4-(1-ethyl-1H-pyrazol-5-yl)phenyl)-2-hydroxypropyl)-4-hydroxypyrrolidine-2-carboxamide]
< 10 | < 10 | – | CCn1nccc1-c1ccc([C@H](CO)NC(=O)[C@@H]2C[C@@H](O)CN2C(=O)[C@H](C(C)C)n2cc(-c3ccc(COc4c(-c5c(C)c(F)cc6[nH]ncc56)c(C5CC5)cc5c(N6C[C@@H]7C[C@H]6CN7)nc(OCC6(CC(F)F)CC6)nc45)cc3)nn2)cc1 [Example 62, (2S,4R)-1-((2S)-2-(4-(4-(((4-((1S,4S)-2,5-diazabicyclo[2.2.1]heptan-2-yl)-6-cyclopropyl-2-((1-(2,2-difluoroethyl)cyclopropyl)methoxy)-7-(6-fluoro-5-methyl-1H-indazol-4-yl)quinazolin-8-yl)oxy)methyl)phenyl)-1H-1,2,3-triazol-1-yl)-3-methylbutanoyl)-N—((R)-1-(4-(1-ethyl-1H-pyrazol-5-yl)phenyl)-2-hydroxyethyl)-4-hydroxypyrrolidine-2-carboxamide]
< 10 | < 10 | – | Cc1ncsc1-c1ccc([C@H](CO)NC(=O)[C@@H]2C[C@@H](O)CN2C(=O)[C@H](C(C)C)n2cc(-c3ccc(COc4c(-c5c(C)c(F)cc6[nH]ncc56)c(C5CC5)cc5c(N6C[C@@H]7C[C@H]6CN7)nc(OCC6(C(F)F)CC6)nc45)cc3)nn2)cc1 [Example 79, (2S,4R)-1-((2S)-2-(4-(4-(((4-((1S,4S)-2,5-diazabicyclo[2.2.1]heptan-2-yl)-6-cyclopropyl-2-((1-(difluoromethyl)cyclopropyl)methoxy)-7-(6-fluoro-5-methyl-1H-indazol-4-yl)quinazolin-8-yl)oxy)methyl)phenyl)-1H-1,2,3-triazol-1-yl)-3-methylbutanoyl)-4-hydroxy-N—((R)-2-hydroxy-1-(4-(4-methylthiazol-5-yl)phenyl)ethyl)pyrrolidine-2-carboxamide]

Source: US20260295053A1, “COMPOUNDS FOR DEGRADATION AND INHIBITION OF KRAS (G12D) PROTEIN” (Shenzhen Ionova Life Science Co., Ltd., priority 2023, published 2026)
